Experiments:
TGF-β1 = target: T1, TGF-β1 (Homo sapiens, UniProt P01137); test: Differential scanning fluorimetry (DSF) of TGF-β1; type: binding; conditions: TGF-β1 2.5 μM, DTT 10 mM, heparin 25 μM
T1 construct: full length mature TGF-β1 is 112 amino acids in length
Procedure: DSF was performed on a 7500 Fast Real PCR System (software version 1.4, Applied Biosystems), as described previously (34,35). TGF-β1 (2.5 μM) was tested with or without heparin (25 μM). To facilitate the melting of TGF-β1, 10 mM of dithiothreitol (DTT) was added to the reaction mix. Experiments were run as previously described (34). First derivatives of the melting curves were calculated using Origin 7 (OriginLab Corp.) to determine the melting temperature of TGF-β1 under the various conditions.

[1] = system: TGF-β1 signaling (pSMAD2, pSMAD3) in hMSCs; test: Western blotting of pSMAD2/pSMAD3 in hMSCs treated with TGF-β1 and GAG; type: cell-based, human
Procedure: Primary hMSCs (Lonza) were isolated from the bone marrow mononuclear cells of a young healthy adult human donor by plastic adherence and characterized as previously described (30,31). The adherent cells were maintained in a basal media consisting of DMEM-low glucose (1000 mg/l, DMEM-LG) supplemented with 10% fetal calf serum, 100 U/ml penicillin, 100 μg/ml streptomycin and 2 mM L-glutamine, and cultured under standard conditions at 37° C. and 5% CO2 in a humidified atmosphere. Media replacement was every three days. Cells were detached with 0.125% trypsin/Versene (pH 7.0) upon reaching 75-80% confluence, and re-plated at a density of 3,000 cells/cm^2 under the same culture conditions. All experiments were carried out with cells at passage 5.
Human MSCs were cultured in 6-well plates in basal media for 24 h at a density of 10,000 cells/cm^2. TGF-β1 treatments were then prepared at either 1 ng/ml or 5 ng/ml alone or in the presence of either 10 μg/ml or 40 μg/ml of full length heparin, or 1 ng/ml of TGF-β1 with 10 μg/ml size-fractionated or selectively desulfated heparin, HS^PM, HS16+ or HS16−, and incubated at room temperature for 10 min before being added to the cells. Latent TGF-β1 (LTGF-β1) treatments were similarly prepared at 3.3 ng/ml alone or with 10 μg/ml of the various GAGs described above. For inhibitor studies, the cells were pre-treated for 30 min with 10 μM SB431542 (Sigma-Aldrich) or DMSO before treatment with TGF-β1. […] Samples were then immunoblotted with antibodies against SMAD2/3 (#3102, Cell Signaling), phosphorylated SMAD2 (pSMAD2, #3108, Cell Signaling), phosphorylated SMAD3 (pSMAD3, #9520, Cell Signaling) and actin (MAB1501R, Millipore). Densitometry was carried out using Quantity One software (version 4.6.6, Bio-Rad).

[2] = 6 h post-treatment, heparin and TGF-β1

T1 sequence (P01137 279-390 limits assumed): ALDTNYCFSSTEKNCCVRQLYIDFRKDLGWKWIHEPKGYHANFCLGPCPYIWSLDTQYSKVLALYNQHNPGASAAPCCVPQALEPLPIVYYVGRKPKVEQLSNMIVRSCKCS

melting temperature of TGF-β1 upon addition of heparin (TGF-β1): 47.5 °C
Substance: heparin
pSMAD2 and pSMAD3 levels ([1]; 1 h post treatment, with TGF-β1): saturated
pSMAD2 level relative to equivalent dose of TGF-β1 without heparin [1, 2]: ~1.6 fold
pSMAD3 level relative to equivalent dose of TGF-β1 without heparin [1, 2]: ~1.35 fold
pSMAD levels relative to TGF-β1 alone ([1]; 24 h, heparin and TGF-β1): continued to be greater
pSMAD2 and pSMAD3 signal ([1]; TGF-β1 1 ng/mL with 40 μg/mL heparin, 6 h): unable to elicit the same effect
pSMAD2 and pSMAD3 levels ([1]; TGF-β1 1 ng/ml pre-incubated with 10 μg/ml GAG, 6 h): maintained a stronger pSMAD2 and pSMAD3 signal
pSMAD signal ([1]; TGF-β1 5 ng/mL with 10 or 40 μg/mL heparin, 6 h): neither dose of heparin was able enhance the pSMAD signal beyond that obtained from the growth factor alone
levels of pSMAD2 and pSMAD3 ([1]; heparin alone, no TGF-β1): No discernible levels

Reference: US10596296B2, “Heparan sulphates” (Agency for Science, Technology and Research, priority 2014, dated 2020)
